Results on 21 compounds are retold here after patent US20210214560A1, “COMPOUND, COLORING COMPOSITION, INK, TONER, COLORING RESIN COMPOSITION, AND COMPOSITION FOR DYEING FIBER” (FUJIFILM Corporation, priority 2018, published 2021).

One data set can be described thus: Production of coloring resin composition (kneading with polybutylene terephthalate at 190° C.). The note with it: 1 g colorant with 100 g polybutylene terephthalate, biaxial extruder, cylinder temperature 190° C. The format is physicochemical. The protocol:
Using a henschel mixer, a blend of 100 g of polybutylene terephthalate (manufactured by Wintech Polymer Ltd., trade name, DURANEX 2002, melting point: 225° C.) and 1 g of the compound according to the embodiment of the present invention (compound (1-48)) was supplied to a biaxial extruder (equipment: TEX28V manufactured by Japan Steel Works, Ltd., screw speed: 200 rotations per minute (rpm)), and kneading was performed at a cylinder temperature of 190° C. to obtain a coloring resin pellet (coloring resin composition). The torque of the extruder was stable and extrusion could be continued, and the discharged strands could be stably conveyed to the pelletizer.
A coloring resin pellet was obtained in the same manner as in Example 25, except that the compound (1-48) of Example 25 was changed to OIL BLACK HBB (manufactured by Orient Chemical Industries Co., Ltd., trade name).
For the compound `CC(=O)c1ccccc1N=Nc1ccc(N=Nc2ccc3c4c(cccc24)NC(C)(C)N3)c2ccccc12` [(1-48)], the “Contamination due to pyrolysis in kneading of coloring resin pellet” value is “No contamination due to pyrolysis was observed”.

A short description of the next data set: Evaluation of heat stability (heat resistance), powder heated at 180° C. for 5 minutes. The format is physicochemical. The following applies: oven 180° C. for 5 minutes, A/A0×100, absorbance in tetrahydrofuran. The protocol:
(§1) Heat stability of each compound was evaluated by the following procedure. 10 mg of the powder of each compound was dissolved in 500 mL of tetrahydrofuran, and the absorption spectrum was measured to obtain a reference absorbance (A0). On the other hand, 10 mg of the powder of each compound was weighed in a 4 cm square aluminum cup, placed in an oven, and heated at 180° C. for 5 minutes. The entire amount of the powder after heating was dissolved in 500 mL of tetrahydrofuran, and the absorption spectrum was measured to obtain an absorbance (A) after the heating test. The residual rate of each compound was calculated by the following expression to evaluate heat stability.
Residual rate of compound (%)=A/A0×100
As to `CC1(C)Nc2cccc3c(N=Nc4ccc(N=Nc5ccccc5[N+](=O)[O-])c5ccccc45)ccc(c23)N1` [(1-36)], the “Residual rate of compound” value stood at 98%.
As for `CCCCCC1(C)Nc2cccc3c(N=Nc4ccc(N=Nc5ccccc5C(C)=O)c5ccccc45)ccc(c23)N1` (centres unmarked) [(1-50)], the “Residual rate of compound” value was determined as 98%.
Still for that read-out and setting: next, `CC1CCCCC12Nc1cccc3c(N=Nc4ccc(N=Nc5ccccc5Cl)c5ccccc45)ccc(c13)N2` (centres unmarked) [(1-27)]: 81%; `CCCCC1(C)Nc2cccc3c(N=Nc4ccc(N=Nc5ccccc5Cl)c5ccccc45)ccc(c23)N1` (centres unmarked) [(1-5)]: 81%.
With `CC1(CO)Nc2cccc3c(N=Nc4ccc(N=Nc5ccccc5Cl)c5ccccc45)ccc(c23)N1` (centres unmarked) [(1-17)], the “Residual rate of compound” value is reported as 89%.
Same read-out and setting: next, `CC1(C)Nc2cccc3c(N=Nc4ccc(N=Nc5ccccc5C#N)c5ccccc45)ccc(c23)N1` [(1-38)]: 92%; `CC(=O)c1ccccc1N=Nc1ccc(N=Nc2ccc3c4c(cccc24)NC(C)(C)N3)c2ccccc12` [(1-48)]: 99%; `CCC1(C)Nc2cccc3c(N=Nc4ccc(N=Nc5ccccc5Cl)c5ccccc45)ccc(c23)N1` (centres unmarked) [(1-2)]: 84%.
Consider `COC(=O)c1ccccc1N=Nc1ccc(N=Nc2ccc3c4c(cccc24)NC(C)(C)N3)c2ccccc12` [(1-40)], for which the “Residual rate of compound” value turned out to be 80%.

The next data set is described as follows: Production of toner (melting and mixing with resin at 150° C.). The format is physicochemical. The note with it: 3 g compound with 100 g styrene-acrylic acid ester copolymer, melted and mixed at 150° C. The protocol: After mixing and pulverizing 3 g of the compound according to the embodiment of the present invention (compound (1-36)) and 100 g of a resin for toner [styrene-acrylic acid ester copolymer; HIMER TB-1000F (trade name, manufactured by Sanyo Chemical Industries, Ltd.)] with a ball mill, the resultant was heated at 150° C. to be melted and mixed, and the results were cooled, roughly pulverized using a hammer mill, and then finely pulverized using a fine pulverizer with an air-jet system. Furthermore, particles which have a particle diameter of 1 to 20 μm were classified and selected to produce a toner.
900 g of carrier iron powder (EFV250/400, trade name, manufactured by Powdertech Co., Ltd.) were uniformly mixed with 10 g of the toner to prepare a developer. Using this developer, copying was performed with a dry type plain paper electrophotographic copier [NP-5000, trade name, manufactured by Canon Inc.].
Take `CC1(C)Nc2cccc3c(N=Nc4ccc(N=Nc5ccccc5[N+](=O)[O-])c5ccccc45)ccc(c23)N1` [(1-36)]: the “Pyrolysis in melting and mixing in the toner production” value was “Pyrolysis in melting and mixing in the toner production was reduced”.

A short description of another data set: Evaluation 2 of heat stability, powder heated at 200° C. for 5 minutes. The format is physicochemical. The following applies: oven 200° C. for 5 minutes, A2/A0×100, absorbance in tetrahydrofuran. The protocol: as §1, with “200°” for “180°”, “(A2)” for “(A)”
Residual rate of compound (%)=A2/A0×100
Take `CCCCCC1(C)Nc2cccc3ccc(N=Nc4ccc(N=Nc5ccccc5Cl)c5ccccc45)c(c23)N1` (centres unmarked) [(3-10)]: the “Residual rate of compound” value was 88%.
Regarding `COC(=O)c1ccccc1N=Nc1ccc(N=Nc2ccc3cccc4c3c2NC(C)(C)N4)c2ccccc12` [(3-3)], the “Residual rate of compound” value was 86%.
In the case of `CCCCC1(C)Nc2cccc3ccc(N=Nc4ccc(N=Nc5ccccc5Cl)c5ccccc45)c(c23)N1` (centres unmarked) [(3-8)], the “Residual rate of compound” value stood at 87%.
The same measure, in the same setting: next, `CC(C)C1(C)Nc2cccc3ccc(N=Nc4ccc(N=Nc5ccccc5Cl)c5ccccc45)c(c23)N1` (centres unmarked) [(3-9)]: 85%.
Same read-out and setting: next, `CC1(C)Nc2cccc3ccc(N=Nc4ccc(N=Nc5ccccc5Cl)c5ccccc45)c(c23)N1` [(3-1)]: 83%; `CC(=O)c1ccccc1N=Nc1ccc(N=Nc2ccc3cccc4c3c2NC(C)(C)N4)c2ccccc12` [(3-6)]: 96%; `CC1(C)Nc2cccc3ccc(N=Nc4ccc(N=Nc5ccccc5F)c5ccccc45)c(c23)N1` [(3-2)]: 85%.
The same measure, in the same setting: next, `CC1(C)Nc2cccc3c(N=Nc4ccc(N=Nc5ccccc5)c5ccccc45)ccc(c23)N1` [Comparative compound C, reference compound]: 59%; `CCCC1(C)Nc2cccc3ccc(N=Nc4ccc(N=Nc5ccccc5Cl)c5ccccc45)c(c23)N1` (centres unmarked) [Compound (3-7)]: 85%; `CC1(C)Nc2cccc3ccc(N=Nc4ccc(N=Nc5ccccc5[N+](=O)[O-])c5ccccc45)c(c23)N1` [(3-5)]: 95%.
Consider `CC1(C)Nc2cccc3ccc(N=Nc4ccc(N=Nc5ccccc5)c5ccccc45)c(c23)N1` [Comparative compound D, reference compound], for which the “Residual rate of compound” value is listed as 65%.
Still for that read-out and setting: next, `CC1(C)Nc2cccc3ccc(N=Nc4ccc(N=Nc5ccccc5C#N)c5ccccc45)c(c23)N1` [(3-4)]: 88%.

Another data set in a line: Evaluation of maximum absorption wavelength (absorption spectrum in tetrahydrofuran solution). The format is physicochemical. The following applies: 1×10^−6 mol/L, optical path length 10 mm (Table 7).
Regarding `CC1(C)Nc2cccc3c(N=Nc4ccc(N=Nc5ccccc5[N+](=O)[O-])c5ccccc45)ccc(c23)N1` [(1-36)], the Absorption maximum wavelength is reported as 638 nm and the “Molar light absorption coefficient” value is given as 30,100 L · mol^−1 · cm^−1.
Take `CCCCCC1(C)Nc2cccc3c(N=Nc4ccc(N=Nc5ccccc5C(C)=O)c5ccccc45)ccc(c23)N1` (centres unmarked) [(1-50)]: the Absorption maximum wavelength was 629 nm and the “Molar light absorption coefficient” value is 34,900 L · mol^−1 · cm^−1.
On the same counts, the results for `CC1CCCCC12Nc1cccc3c(N=Nc4ccc(N=Nc5ccccc5Cl)c5ccccc45)ccc(c13)N2` (centres unmarked) [(1-27)] are 629 nm and 34,800 L · mol^−1 · cm^−1.
Taken in the same sequence, the figures for `CCCCC1(C)Nc2cccc3c(N=Nc4ccc(N=Nc5ccccc5Cl)c5ccccc45)ccc(c23)N1` (centres unmarked) [(1-5)] were 629 nm and 35,100 L · mol^−1 · cm^−1.
Taken in the same sequence, the figures for `CC1(CO)Nc2cccc3c(N=Nc4ccc(N=Nc5ccccc5Cl)c5ccccc45)ccc(c23)N1` (centres unmarked) [(1-17)] were 622 nm and 33,100 L · mol^−1 · cm^−1.
With `CC1(C)Nc2cccc3c(N=Nc4ccc(N=Nc5ccccc5C#N)c5ccccc45)ccc(c23)N1` [(1-38)], the Absorption maximum wavelength is listed as 648 nm and the “Molar light absorption coefficient” value is 28,900 L · mol^−1 · cm^−1.
On the same counts, the results for `CC(=O)c1ccccc1N=Nc1ccc(N=Nc2ccc3c4c(cccc24)NC(C)(C)N3)c2ccccc12` [(1-48)] are 624 nm and 34,100 L · mol^−1 · cm^−1.
On the same counts, the results for `CCC1(C)Nc2cccc3c(N=Nc4ccc(N=Nc5ccccc5Cl)c5ccccc45)ccc(c23)N1` (centres unmarked) [(1-2)] are 627 nm and 34,000 L · mol^−1 · cm^−1.
Taken in the same sequence, the figures for `COC(=O)c1ccccc1N=Nc1ccc(N=Nc2ccc3c4c(cccc24)NC(C)(C)N3)c2ccccc12` [(1-40)] were 599 nm and 26,600 L · mol^−1 · cm^−1.

The data set is the same for the next values; noted with them: 1×10^−6 mol/L, optical path length 10 mm (Table 9).
For `CCCCCC1(C)Nc2cccc3ccc(N=Nc4ccc(N=Nc5ccccc5Cl)c5ccccc45)c(c23)N1` (centres unmarked) [(3-10)], the Absorption maximum wavelength is 615 nm and the “Molar light absorption coefficient” value is 34800 L/mol/cm.
Taken in the same sequence, the figures for `COC(=O)c1ccccc1N=Nc1ccc(N=Nc2ccc3cccc4c3c2NC(C)(C)N4)c2ccccc12` [(3-3)] were 586 nm and 29200 L/mol/cm.
Taken in the same sequence, the figures for `CCCCC1(C)Nc2cccc3ccc(N=Nc4ccc(N=Nc5ccccc5Cl)c5ccccc45)c(c23)N1` (centres unmarked) [(3-8)] were 616 nm and 35800 L/mol/cm.
On the same counts, the results for `CC(C)C1(C)Nc2cccc3ccc(N=Nc4ccc(N=Nc5ccccc5Cl)c5ccccc45)c(c23)N1` (centres unmarked) [(3-9)] are 614 nm and 35500 L/mol/cm.
Regarding `CC1(C)Nc2cccc3ccc(N=Nc4ccc(N=Nc5ccccc5Cl)c5ccccc45)c(c23)N1` [(3-1)], the Absorption maximum wavelength was determined as 612 nm and the “Molar light absorption coefficient” value is 36300 L/mol/cm.
For the compound `CC(=O)c1ccccc1N=Nc1ccc(N=Nc2ccc3cccc4c3c2NC(C)(C)N4)c2ccccc12` [(3-6)], the Absorption maximum wavelength was 615 nm and the “Molar light absorption coefficient” value was 36100 L/mol/cm.
Taken in the same sequence, the figures for `CC1(C)Nc2cccc3ccc(N=Nc4ccc(N=Nc5ccccc5F)c5ccccc45)c(c23)N1` [(3-2)] were 608 nm and 36000 L/mol/cm.
On the same counts, the results for `CC1(C)Nc2cccc3c(N=Nc4ccc(N=Nc5ccccc5)c5ccccc45)ccc(c23)N1` [Comparative compound C, reference compound] are 607 nm and 32000 L/mol/cm.
`CCCC1(C)Nc2cccc3ccc(N=Nc4ccc(N=Nc5ccccc5Cl)c5ccccc45)c(c23)N1` (centres unmarked) [Compound (3-7)]: the Absorption maximum wavelength stood at 617 nm and the “Molar light absorption coefficient” value was determined as 36200 L/mol/cm.
On the same counts, the results for `CC1(C)Nc2cccc3ccc(N=Nc4ccc(N=Nc5ccccc5[N+](=O)[O-])c5ccccc45)c(c23)N1` [(3-5)] are 627 nm and 32100 L/mol/cm.
On the same counts, the results for `CC1(C)Nc2cccc3ccc(N=Nc4ccc(N=Nc5ccccc5)c5ccccc45)c(c23)N1` [Comparative compound D, reference compound] are 599 nm and 34200 L/mol/cm.
In the case of `CC1(C)Nc2cccc3ccc(N=Nc4ccc(N=Nc5ccccc5C#N)c5ccccc45)c(c23)N1` [(3-4)], the Absorption maximum wavelength stood at 638 nm and the “Molar light absorption coefficient” value came out at 30500 L/mol/cm.
